In patent publication US9446027B2, “Use of pidotimod to treat irritable bowel syndrome” (POLICHEM SA, priority 2013, dated 2016):
Square brackets hold non-standard residues; d marks the D form. Peptide text beside a SMILES is read from it. pGlu = O=C1CC[C@@H](C(=O)O)N1; Thz = O=C(O)[C@@H]1CSCN1

Test system: irritable bowel syndrome
Assay: Open label pilot trial in patients with IBS: overall and extracolonic IBS scores
Format: in vivo, human
Conditions: nine IBS patients, oral solution of Example 4 twice a day, after 12 weeks
Description: Nine patients with IBS aged 25 to 60 years (5 female) were enrolled in an open label pilot trial to receive twice a day the composition as per the Example 4. IBS was diagnosed according to Rome II criteria for the diagnosis of IBS (Rasquin-Weber A: Childhood functional gastrointestinal disorders, Gut 1999;45 (Suppl II): II60-II68). Rome II Criteria for the Diagnosis of IBS: at least 12 weeks, which need not be consecutive, in the preceding 12 months of abdominal discomfort or pain that has at least two of the following three features: • 1. Relieved by defecation. • 2. Onset associated with changes in stool frequency. • 3. Onset associated with changes in stool form.
The overall IBS scores (IBS Symptoms, Pain severity, Pain frequency, Bloating, Bowel habit dissatisfaction, Life interference) and extracolonic IBS scores were assessed at 4, 8, and 12 weeks during treatment.

Compound: O=C1CC[C@@H](C(=O)N2CSC[C@H]2C(=O)O)N1 [Pidotimod, (4R)-3-(5-oxo-L-prolyl)-1,3-thiazolidine-4-carboxylic acid] ([pGlu]-[Thz]-OH)
- post-treatment overall extracolonic IBS score (baseline 240, P<0.001): 90
- overall IBS score (IBS Symptoms, Pain severity, Pain frequency, Bloating, Bowel habit dissatisfaction, Life interference) (baseline 315, P<0.05): 175
